Experimental data as given in US12570655B2, “Cysteine covalent modifiers of AKT1 and uses thereof” (Terremoto Biosciences, Inc., priority 2023, dated 2026).
Where two headings read alike, the source gives them in different places.

Experiments:
Type in all cases: cell-based
AKT1 WT = target: T1, AKT1 WT (Homo sapiens, UniProt P31749); assay: Live cell AKT1 WT target engagement by NanoBRET competitive probe displacement; details: HEK293 cells transfected with kinase-NanoLuciferase fusion, 2 h at 37° C.
T1 construct: expressed in transfected cells; host or cells: HEK293
T1 sequence (P31749 whole entry, the tested form may be a part): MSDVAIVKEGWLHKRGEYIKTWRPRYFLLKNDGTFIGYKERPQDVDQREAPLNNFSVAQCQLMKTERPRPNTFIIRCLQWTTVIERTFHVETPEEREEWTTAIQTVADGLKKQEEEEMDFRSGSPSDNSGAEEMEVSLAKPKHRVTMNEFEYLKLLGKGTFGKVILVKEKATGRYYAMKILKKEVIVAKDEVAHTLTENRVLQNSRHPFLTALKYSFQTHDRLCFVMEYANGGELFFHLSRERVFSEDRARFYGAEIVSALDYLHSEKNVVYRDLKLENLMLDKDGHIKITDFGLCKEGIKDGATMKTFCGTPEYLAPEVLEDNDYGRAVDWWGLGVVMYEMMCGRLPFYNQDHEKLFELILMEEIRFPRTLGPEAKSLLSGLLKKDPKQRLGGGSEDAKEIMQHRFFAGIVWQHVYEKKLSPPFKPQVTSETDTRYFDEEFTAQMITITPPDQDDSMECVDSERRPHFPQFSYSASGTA
Procedure, shortened: (§1)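 Luminescence ratio 600/460 nm served as readout after HEK293 cells bearing transiently expressed kinase–NanoLuciferase fusions were exposed 2 h at 37 °C to test compound alongside an ATP-competitive fluorescent tracer near EC50. Extracellular signal was quenched by a luciferase inhibitor.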

AKT2 = target: T2, AKT2 (Homo sapiens, UniProt P31751); assay: Live cell AKT2 target engagement by NanoBRET competitive probe displacement; details: HEK293 cells transfected with kinase-NanoLuciferase fusion, 2 h at 37° C.
T2 construct: expressed in transfected cells; host or cells: HEK293
T2 sequence (P31751 whole entry, the tested form may be a part): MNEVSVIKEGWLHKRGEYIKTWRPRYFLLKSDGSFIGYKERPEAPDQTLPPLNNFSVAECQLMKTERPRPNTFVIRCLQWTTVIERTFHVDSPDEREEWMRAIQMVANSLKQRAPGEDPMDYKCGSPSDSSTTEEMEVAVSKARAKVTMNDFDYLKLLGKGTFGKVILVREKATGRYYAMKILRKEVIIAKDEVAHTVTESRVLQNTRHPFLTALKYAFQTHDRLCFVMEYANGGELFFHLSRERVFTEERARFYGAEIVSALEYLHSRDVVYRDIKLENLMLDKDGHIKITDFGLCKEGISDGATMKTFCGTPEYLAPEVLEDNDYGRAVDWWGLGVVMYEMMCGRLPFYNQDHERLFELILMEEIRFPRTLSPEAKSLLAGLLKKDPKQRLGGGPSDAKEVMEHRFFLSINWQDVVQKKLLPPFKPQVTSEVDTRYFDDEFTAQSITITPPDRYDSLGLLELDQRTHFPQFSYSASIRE
Procedure, shortened: as §1

AKT1 E17K = target: T3, AKT1 E17K (Homo sapiens, UniProt P31749, E17K); assay: Live cell AKT1 E17K target engagement by NanoBRET competitive probe displacement; details: HEK293 cells transfected with kinase-NanoLuciferase fusion, 2 h at 37° C.
T3 construct: expressed in transfected cells; host or cells: HEK293
T3 sequence (P31749 whole entry E17K, the tested form may be a part): as the sequence (P31749 whole entry, the tested form may be a part) above, with E17K counted along it
Procedure, shortened: as §1

[1] = system: LAPC4 prostate cancer cells; assay: Antiproliferative effects in LAPC4 cells (CellTiter Glo); details: LAPC4 cells (AKT1 E17K allele), read-out: LAPC4 proliferation IC50
Procedure, shortened: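 IC50 values reflect 72 h compound treatment of cells plated at 1,000 per well, with CellTiter Glo luminescence as the viability read-out.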

| SMILES | IC50 (AKT1 WT) | IC50 (AKT2) | IC50 (AKT1 E17K) | IC50 ([1]; Homo sapiens, LAPC4, 72 h) | IC50 ([1]; 72 h) |
| --- | --- | --- | --- | --- | --- |
| C=CC(=O)N1CCC(N[C@@H]2c3ccc(-n4c(-c5cccnc5N)nc5ccc(-n6ccc(C#N)n6)nc54)cc3CC2F)CC1 (single isomer, unassigned) [Example 311, 1-(3-((1R,2*)-1-((1-acryloylpiperidin-4-yl)amino)-2-fluoro-2,3-dihydro-1H-inden-5-yl)-2-(2-aminopyridin-3-yl)-3H-imidazo[4,5-b]pyridin-5-yl)-1H-pyrazole-3-carbonitrile] | 1190 nM | 246 nM | 34.9 nM | 496 nM |  |
| C=CC(=O)N1CCC(N[C@@H]2c3ccc(-n4c(-c5cccnc5N)nc5ccc(-n6ccc(C#N)n6)nc54)cc3CC2F)CC1 (single isomer, unassigned) [Example 312, 1-(3-((1R,2*)-1-((1-acryloylpiperidin-4-yl)amino)-2-fluoro-2,3-dihydro-1H-inden-5-yl)-2-(2-aminopyridin-3-yl)-3H-imidazo[4,5-b]pyridin-5-yl)-1H-pyrazole-3-carbonitrile] | 652 nM | 102 nM | 11.6 nM |  | 440 nM |
| C=CC(=O)N1CCC(N[C@@H]2c3ccc(-n4c(-c5ccccc5F)nc5ccc(-n6cccn6)nc54)cc3CC2F)C[C@H]1C (single isomer, unassigned) [Example 317, 1-((2R,4*)-4-(((1R,2*)-2-fluoro-5-(2-(2-fluorophenyl)-5-(1H-pyrazol-1-yl)-3H-imidazo[4,5-b]pyridin-3-yl)-2,3-dihydro-1H-inden-1-yl)amino)-2-methylpiperidin-1-yl)prop-2-en-1-one] | 2590 nM | 68.4 nM | 20.3 nM |  | 464 nM |
| C=CC(=O)Nc1ccccc1C(=O)N[C@H]1CCc2cc(-n3c(-c4cccnc4N)nc4ccc(-n5cccn5)nc43)ccc21 [Example 1, (S)-2-acrylamido-N-(5-(2-(2-aminopyridin-3-yl)-5-(1H-pyrazol-1-yl)-3H-imidazo[4,5-b]pyridin-3-yl)-2,3-dihydro-1H-inden-1-yl)benzamide] | 11.7 nM | 35 nM | 12.2 nM | 25.4 nM |  |
| C=CC(=O)Nc1cccc(C(=O)N[C@H]2CCc3cc(-n4c(-c5cccnc5N)nc5ccc(-n6cccn6)nc54)ccc32)c1 [Example 2, (S)-3-acrylamido-N-(5-(2-(2-aminopyridin-3-yl)-5-(1H-pyrazol-1-yl)-3H-imidazo[4,5-b]pyridin-3-yl)-2,3-dihydro-1H-inden-1-yl)benzamide] | 18.7 nM | 117 nM | 22.7 nM | 189 nM |  |
| C=CC(=O)N1CCc2c(C(=O)N[C@H]3CCc4cc(-n5c(-c6cccnc6N)nc6ccc(-n7cccn7)nc65)ccc43)cccc21 [Example 3, N-[(1S)-5-[2-(2-aminopyridin-3-yl)-5-(pyrazol-1-yl)imidazo[4,5-b]pyridin-3-yl]-2,3-dihydro-1H-inden-1-yl]-1-(prop-2-enoyl)-2,3-dihydroindole-4-carboxamide] | 15.1 nM | 70 nM | 32.8 nM | 833 nM |  |
| C=CC(=O)N(C)c1ccccc1C(=O)N[C@H]1CCc2cc(-n3c(-c4cccnc4N)nc4ccc(-n5cccn5)nc43)ccc21 [Example 4, (S)-N-(5-(2-(2-aminopyridin-3-yl)-5-(1H-pyrazol-1-yl)-3H-imidazo[4,5-b]pyridin-3-yl)-2,3-dihydro-1H-inden-1-yl)-2-(N-methylacrylamido)benzamide] | 212 nM | 3750 nM | 823 nM | 4210 nM |  |
| C=C(F)C(=O)Nc1ccccc1C(=O)N[C@H]1CCc2cc(-n3c(-c4cccnc4N)nc4ccc(-n5cccn5)nc43)ccc21 [Example 5, (S)-N-(5-(2-(2-aminopyridin-3-yl)-5-(1H-pyrazol-1-yl)-3H-imidazo[4,5-b]pyridin-3-yl)-2,3-dihydro-1H-inden-1-yl)-2-(2-fluoroacrylamido)benzamide] | 19.4 nM | 271 nM | 46.2 nM | 310 nM |  |
| C=CC(=O)Nc1cccc(F)c1C(=O)N[C@H]1CCc2cc(-n3c(-c4cccnc4N)nc4ccc(-n5cccn5)nc43)ccc21 [Example 6, N-[(1S)-5-[2-(2-aminopyridin-3-yl)-5-(pyrazol-1-yl)imidazo[4,5-b]pyridin-3-yl]-2,3-dihydro-1H-inden-1-yl]-2-fluoro-6-(prop-2-enamido)benzamide] | 11.9 nM | 22 nM | 20.1 nM | 144 nM |  |
| C=CC(=O)N1CCc2ccc(C(=O)N[C@H]3CCc4cc(-n5c(-c6cccnc6N)nc6ccc(-n7cccn7)nc65)ccc43)cc21 [Example 7, (S)-1-acryloyl-N-(5-(2-(2-aminopyridin-3-yl)-5-(1H-pyrazol-1-yl)-3H-imidazo[4,5-b]pyridin-3-yl)-2,3-dihydro-1H-inden-1-yl)indoline-6-carboxamide] | 20.7 nM | 69.4 nM | 42.8 nM | 2060 nM |  |
| C=C(F)C(=O)Nc1cccc(C(=O)N[C@H]2CCc3cc(-n4c(-c5cccnc5N)nc5ccc(-n6cccn6)nc54)ccc32)c1 [Example 8, (S)-N-(5-(2-(2-aminopyridin-3-yl)-5-(1H-pyrazol-1-yl)-3H-imidazo[4,5-b]pyridin-3-yl)-2,3-dihydro-1H-inden-1-yl)-3-(2-fluoroacrylamido)benzamide] | 7.07 nM | 71.5 nM | 112 nM | 1120 nM |  |
| CC#CC(=O)Nc1ccccc1C(=O)N[C@H]1CCc2cc(-n3c(-c4cccnc4N)nc4ccc(-n5cccn5)nc43)ccc21 [Example 9, N-[(1S)-5-[2-(2-aminopyridin-3-yl)-5-(pyrazol-1-yl)imidazo[4,5-b]pyridin-3-yl]-2,3-dihydro-1H-inden-1-yl]-2-(but-2-ynamido)benzamide] | 21.9 nM | 440 nM | 96.9 nM | 528 nM |  |
| C=CC(=O)N1CCc2cccc(C(=O)N[C@H]3CCc4cc(-n5c(-c6cccnc6N)nc6ccc(-n7cccn7)nc65)ccc43)c21 [Example 10, N-[(1S)-5-[2-(2-aminopyridin-3-yl)-5-(pyrazol-1-yl)imidazo[4,5-b]pyridin-3-yl]-2,3-dihydro-1H-inden-1-yl]1-(prop-2-enoyl)-2,3-dihydroindole-7-carboxamide] | 121 nM | 1470 nM | > 1000 nM | 1860 nM |  |
| C=CC(=O)Nc1cc(C(=O)N[C@H]2CCc3cc(-n4c(-c5cccnc5N)nc5ccc(-n6cccn6)nc54)ccc32)ccn1 [Example 11, (S)-2-acrylamido-N-(5-(2-(2-aminopyridin-3-yl)-5-(1H-pyrazol-1-yl)-3H-imidazo[4,5-b]pyridin-3-yl)-2,3-dihydro-1H-inden-1-yl)isonicotinamide] | 4.29 nM | 25.9 nM | 7.03 nM | 650 nM |  |
| CC#CC(=O)Nc1cccc(C(=O)N[C@H]2CCc3cc(-n4c(-c5cccnc5N)nc5ccc(-n6cccn6)nc54)ccc32)c1 [Example 12, (S)-N-(5-(2-(2-aminopyridin-3-yl)-5-(1H-pyrazol-1-yl)-3H-imidazo[4,5-b]pyridin-3-yl)-2,3-dihydro-1H-inden-1-yl)-3-(but-2-ynamido)benzamide] | 11.2 nM | 129 nM | 12.9 nM | 343 nM |  |
| C=CC(=O)N1CC2CCC(C1)C2N[C@H]1CCc2cc(-n3c(-c4cccnc4N)nc4ccc(-n5cccn5)nc43)ccc21 (stereo partly drawn) [Example 14, 1-(8-{[(1S)-5-[2-(2-aminopyridin-3-yl)-5-(pyrazol-1-yl)imidazo[4,5-b]pyridin-3-yl]-2,3-dihydro-1H-inden-1-yl]amino}-3-azabicyclo[3.2.1]octan-3-yl)prop-2-en-1-one] | 85.3 nM | 1420 nM | 436 nM | 1160 nM |  |
| C=CC(=O)Nc1cccc(C)c1C(=O)N[C@H]1CCc2cc(-n3c(-c4cccnc4N)nc4ccc(-n5cccn5)nc43)ccc21 [Example 15, (S)-2-acrylamido-N-(5-(2-(2-aminopyridin-3-yl)-5-(1H-pyrazol-1-yl)-3H-imidazo[4,5-b]pyridin-3-yl)-2,3-dihydro-1H-inden-1-yl)-6-methylbenzamide] | 34.3 nM | 377 nM | 78.7 nM | 366 nM |  |
| CN(C)C/C=C/C(=O)Nc1ccccc1C(=O)N[C@H]1CCc2cc(-n3c(-c4cccnc4N)nc4ccc(-n5cccn5)nc43)ccc21 [Example 16, (S,E)-N-(5-(2-(2-aminopyridin-3-yl)-5-(1H-pyrazol-1-yl)-3H-imidazo[4,5-b]pyridin-3-yl)-2,3-dihydro-1H-inden-1-yl)-2-(4-(dimethylamino)but-2-enamido)benzamide] | 11.3 nM | 67.8 nM | 52.7 nM | 183 nM |  |
| C=C(C)C(=O)Nc1ccccc1C(=O)N[C@H]1CCc2cc(-n3c(-c4cccnc4N)nc4ccc(-n5cccn5)nc43)ccc21 [Example 17, (S)-N-(5-(2-(2-aminopyridin-3-yl)-5-(1H-pyrazol-1-yl)-3H-imidazo[4,5-b]pyridin-3-yl)-2,3-dihydro-1H-inden-1-yl)-2-methacrylamidobenzamide] | 43 nM | 1020 nM | 146 nM | 2330 nM |  |
